Data on 14 compounds can be found in PubChem BioAssay (NCI).

Some test systems named below: OVCAR-8 ovarian; HCC-2998 colon; OVCAR-4 ovarian; SW-620 colon; OVCAR-5 ovarian; U251 CNS; HOP-92 NSCLC; HL-60(TB) leukemia.
Common to all, as to assay: DTP human tumour cell line panel, 48 h

SMILES strings stand for the structures.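 Tested at 5 concentrations; 48 h exposure; 96-well plates; endpoints linearly interpolated, else capped at highest concentration. GI50 marks 50% less growth. TGI: total growth inhibition.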

As usually defined, the TGI is the concentration giving total growth inhibition. The low end stands for more potent growth arrest, the high end for less potent growth arrest. On to `CCC(c1ccccc1)c1cc(C(C)(C)C)cc(C(C)(C)C)c1O` (stereo not drawn), for which the TGI in the assay with OVCAR-8 ovarian turned out to be 31.1 µM; in the assay with HCC-2998 colon it was 29.2 µM; with OVCAR-4 ovarian it was 29.3 µM; in the assay on SW-620 colon, 30.5 µM; in the assay with OVCAR-5 ovarian it was 26.6 µM; with U251 CNS, 31.5 µM. The TGI in the assay with HOP-92 NSCLC worked out at 30.1 µM.

`NS(=O)(=O)c1ccc(N=Nc2c[nH]c(=O)c(O)c2)cc1`: the TGI is greater than 100 µM in the assay with OVCAR-8 ovarian; greater than 100 µM in the assay on OVCAR-4 ovarian; greater than 100 µM with HL-60(TB) leukemia; greater than 100 µM with SW-620 colon; greater than 100 µM with OVCAR-5 ovarian; 46.3 µM with U251 CNS. The TGI in the assay on HOP-92 NSCLC is greater than 100 µM.

In general, GI50 refers to the concentration giving 50% growth inhibition. Consider `Clc1ccc(-c2nc(NCc3ccco3)c3ccccc3n2)c(Cl)c1`, for which the GI50 in the assay with OVCAR-8 ovarian was 24.2 µM; in the assay with HCC-2998 colon it was 18.2 µM; in the assay on OVCAR-4 ovarian, 43.3 µM; in the assay on OVCAR-5 ovarian, 40.1 µM; with U251 CNS it was 16.5 µM; in the assay with HOP-92 NSCLC, 4.94 µM. The TGI in the assay with OVCAR-8 ovarian is 82.7 µM; with HCC-2998 colon, 46.9 µM; with OVCAR-4 ovarian, greater than 100 µM; with OVCAR-5 ovarian it was greater than 100 µM; in the assay on U251 CNS, 47.4 µM; in the assay with HOP-92 NSCLC it was 74.7 µM.

As to `COc1ccc2nc3ccccc3c(NCCCCN(CCCl)CCCl)c2c1`, the TGI was 0.625 µM in the assay with OVCAR-8 ovarian; 6.06 µM in the assay with HCC-2998 colon; 0.542 µM in the assay with OVCAR-4 ovarian; 2.74 µM in the assay with SW-620 colon; greater than 23.6 µM with OVCAR-5 ovarian; 1.83 µM in the assay on U251 CNS.

On to `O=C1C=CC(=O)c2c1nc(CBr)[nH]c2=O`, for which the TGI in the assay on OVCAR-8 ovarian is greater than 100 µM; in the assay with HCC-2998 colon, greater than 100 µM; with OVCAR-4 ovarian it was greater than 100 µM; with HL-60(TB) leukemia it was 55 µM; with OVCAR-5 ovarian, greater than 100 µM; in the assay with U251 CNS, greater than 100 µM.

Consider `O=C(C(=CN1CCN(C(=O)c2ccco2)C1=S)C(=O)c1ccccc1)c1ccccc1`, for which the GI50 was 16.2 µM in the assay with OVCAR-8 ovarian; 16.1 µM in the assay on OVCAR-4 ovarian; 9.89 µM in the assay with HL-60(TB) leukemia; 8.73 µM with SW-620 colon; 2.66 µM in the assay on U251 CNS; 27 µM in the assay with HOP-92 NSCLC. Besides, the TGI in the assay with OVCAR-8 ovarian was 41.4 µM; in the assay with OVCAR-4 ovarian it was 42.8 µM; with HL-60(TB) leukemia, 34.9 µM; in the assay on SW-620 colon it was 20.3 µM; in the assay on U251 CNS it was 25.8 µM; in the assay on HOP-92 NSCLC, greater than 50 µM.

As to `O=C1Cc2cc(CCN3CCNCC3)c(Cl)cc2N1`, the GI50 in the assay on OVCAR-8 ovarian was 36.8 µM; in the assay with HCC-2998 colon it was 46.6 µM; in the assay with OVCAR-4 ovarian it was 87.8 µM; in the assay on HL-60(TB) leukemia it was 43 µM; with SW-620 colon, 4.98 µM; in the assay with OVCAR-5 ovarian, 79.2 µM. Moreover, the GI50 in the assay with U251 CNS was 7.79 µM. Besides, the TGI with OVCAR-8 ovarian, in the assay with HCC-2998 colon, in the assay on OVCAR-4 ovarian, in the assay with HL-60(TB) leukemia, with SW-620 colon and in the assay with OVCAR-5 ovarian was greater than 100 µM each time. In addition, in the assay on U251 CNS, the TGI is greater than 100 µM.

On to `O=C1/C(=C/c2ccc(C(F)(F)F)cc2)COc2ccc(O)c(O)c21`, for which the GI50 with OVCAR-8 ovarian was 0.846 µM; with HCC-2998 colon it was 1.7 µM; with OVCAR-4 ovarian, 1.39 µM; with HL-60(TB) leukemia, 0.52 µM; in the assay on OVCAR-5 ovarian, 1.6 µM; in the assay on U251 CNS it was 0.703 µM. Also, in the assay on HOP-92 NSCLC, the GI50 was 1.97 µM. Besides, the TGI in the assay on OVCAR-8 ovarian came out at 2.96 µM; with HCC-2998 colon, 3.16 µM; with OVCAR-4 ovarian, 2.72 µM; in the assay on HL-60(TB) leukemia, 3.06 µM; in the assay with OVCAR-5 ovarian, 3.09 µM; with U251 CNS, 2.05 µM. In the assay with HOP-92 NSCLC, this compound displayed a TGI of 6.67 µM.

Turning to `COC(=O)c1cc2cc(/C=C3/SC(=S)N(N(C(C)=O)C(C)=O)C3=O)oc2n1Cc1ccccc1`, the GI50 was 18.3 µM with OVCAR-8 ovarian; 17.3 µM in the assay with HCC-2998 colon; 38.2 µM in the assay on OVCAR-4 ovarian; 41 µM in the assay with SW-620 colon; 19 µM with OVCAR-5 ovarian; 12.8 µM with U251 CNS. Further, the GI50 in the assay on HOP-92 NSCLC was 44 µM. Further, the TGI with OVCAR-8 ovarian is 42.8 µM; with HCC-2998 colon, 40.5 µM; in the assay with OVCAR-4 ovarian, greater than 100 µM; in the assay on SW-620 colon, greater than 100 µM; in the assay with OVCAR-5 ovarian, 38.1 µM; in the assay on U251 CNS, 30.8 µM. For the same compound, the TGI in the assay on HOP-92 NSCLC was greater than 100 µM.

Turning to `N=C(CC(=O)Nc1ccccn1)c1ccccc1`, the TGI in the assay on OVCAR-8 ovarian, in the assay on OVCAR-4 ovarian, in the assay with HL-60(TB) leukemia, in the assay on SW-620 colon, with OVCAR-5 ovarian and with U251 CNS was greater than 100 µM throughout. This compound came in with a TGI with HOP-92 NSCLC greater than 100 µM.

Turning to `CCOCCOCCOCCOCCOCCOCCOCCOCCOCCO` (tested in a mixture with another compound), the GI50 in the assay on OVCAR-8 ovarian was 0.871 µM; in the assay on HCC-2998 colon it was 1.65 µM; with OVCAR-4 ovarian, 0.717 µM; in the assay on HL-60(TB) leukemia it was 0.649 µM; in the assay with SW-620 colon, 1.56 µM; in the assay on U251 CNS, 0.987 µM. Besides, the GI50 in the assay with HOP-92 NSCLC was 0.643 µM. Also, the TGI stood at 4.36 µM in the assay on OVCAR-8 ovarian; 6.25 µM in the assay with HCC-2998 colon; 2.84 µM in the assay on OVCAR-4 ovarian; 1.59 µM in the assay on HL-60(TB) leukemia; 8.17 µM with SW-620 colon; 4.47 µM with U251 CNS. Moreover, the TGI in the assay with HOP-92 NSCLC came out at 2.9 µM.

`COc1ccc(/C=C/c2ccnc3ccccc23)cc1OC`: the TGI with HCC-2998 colon was greater than 100 µM; with OVCAR-4 ovarian, 24.8 µM; in the assay on HL-60(TB) leukemia, 25.5 µM; in the assay on SW-620 colon it was 29.1 µM; with OVCAR-5 ovarian it was 27.6 µM; in the assay with U251 CNS, greater than 100 µM.

For `C=CCSC(C)=O`, the TGI with OVCAR-8 ovarian, in the assay on HCC-2998 colon, in the assay with OVCAR-4 ovarian, in the assay with HL-60(TB) leukemia, in the assay with SW-620 colon and with OVCAR-5 ovarian was greater than 100 µM in each case. Moreover, the TGI in the assay on U251 CNS is greater than 100 µM.

Consider `O=C(Oc1c(Cl)cc(Cl)cc1Cl)c1ccccc1Nc1ccnc(C(F)(F)F)c1`, for which the GI50 is 3.04 µM with OVCAR-8 ovarian; 3.97 µM in the assay on HL-60(TB) leukemia; 4.59 µM with SW-620 colon; 4.1 µM in the assay with OVCAR-5 ovarian; 3.04 µM in the assay with U251 CNS; greater than 100 µM in the assay with HOP-92 NSCLC. In addition, the TGI was 49.9 µM in the assay on OVCAR-8 ovarian; greater than 100 µM with HL-60(TB) leukemia; greater than 100 µM in the assay on SW-620 colon; 16.5 µM in the assay with OVCAR-5 ovarian; 9.32 µM in the assay on U251 CNS; greater than 100 µM with HOP-92 NSCLC.
